From patent US20170166561A1, “QUINUCLIDINE COMPOUNDS FOR MODULATING ALPHA7-NICOTINIC ACETYLCHOLINE RECEPTOR ACTIVITY” (Alpharmagen, LLC, priority 2014, published 2017)
Counter-ions that a name gives are not always drawn. Like-named read-outs stand apart in the source and are kept apart here.

What was measured:
[1] = target: rat brain nicotinic receptor (α7 NAChR, α-Bungarotoxin binding site) (Rattus norvegicus, UniProt Q05941)
[2] = Metabolic stability assay in human liver microsomes (HLM; Protocols 1 and 2); assay type: in vitro ADME; conditions: 1 μM
Description: Example B4: Metabolic Stability Assays
Studies were carried out in human and rat liver microsomes (“HLM” and “RLM,” respectively). Human and rat liver microsomes were purchased from BD Gentest. DMSO stocks were prepared for the test compounds. Aliquots of the DMSO solutions were diluted to 0.5 mM by acetonitrile, then further diluted by liver microsomes/buffer to 1.5 μM. 30 μL of 1.5 μM solutions were mixed with 15 μL of 6 mM NADPH, which had been pre-warmed to 37° C., at a final test compound concentration of 1 μM. The plates were kept in a 37° C. water bath for the duration of the experiment. At each time point (0, 5, 15, 30, 45 minutes), 135 μL of acetonitrile was added into corresponding wells. After the final time point was sampled, the plates were shaken at a vibrator (IKA, MTS 2/4) for 10 min (600 rpm/min) and then centrifuged at 5594 g for 15 min (Thermo Multifuge×3R). Aliquots of the supernatant were removed, diluted 1:1 into distilled water, and analyzed by LC-MS/MS. The peak area response ratio to internal standard (PARR) of the compounds at 5, 15, 30, 45 minutes was compared to the PARR at time 0 to determine the percent of test compound remaining at each time point. Half-lives were calculated using Excel software, fitting to a single-phase exponential decay equation.
Studies were carried out in human and rat liver microsomes. Buffer solutions were prepared as follows: Buffer A: 1.0 L of 0.1 M monobasic Potassium Phosphate buffer containing 1.0 mM EDTA; Buffer B: 1.0 L of 0.1 M Dibasic Potassium Phosphate buffer containing 1.0 mM EDTA; Buffer C: 0.1 M Potassium Phosphate buffer, 1.0 mM EDTA, pH 7.4 by titrating 700 mL of buffer B with buffer A while monitoring with a pH meter.
Reference compound (Ketanserin) and test compound spiking solutions were prepared as follows: 500 μM spiking solution: add 10 μL of 10 mM DMSO stock solution into 190 μL ACN; 1.5 μM spiking solution in microsomes (0.75 mg/mL): add 1.5 μL of 500 μM spiking solution and 18.75 μL of 20 mg/mL liver microsomes into 479.75 μL of Buffer C.
NADPH stock solution (6 mM) was prepared by dissolving NADPH into buffer C.
Assay procedure: 30 μL of 1.5 μM spiking solution containing 0.75 mg/mL microsomes solution was dispensed to the wells designated for 45 min, 30 min, 15 min, 5 min, and 0 min. The plate was pre-incubated at 37° C. for 10 minutes. 15 μL of NADPH stock solution (6 mM) was added to the wells designated as Time 45, and the timer was started. At 30 min, 15 min, and 5 min, 15 μL NADPH stock solution (6 mM) was added to the wells, respectively. At the end of incubation (0 min), 135 tit of ACN containing IS was added to all the wells. Then 15 tit of NADPH stock solution (6 mM) was added to the wells designated as Time 0. After quenching, the reaction mixtures were centrifuged at 3220 g for 10 min. Following centrifugation, 50 μL of the supernatant was transferred from each well into a 96-well sample plate containing 50 μL of ultra-pure water (Millipore) for LC/MS analysis. The peak area response (PARR) ratio to internal standard of the compounds at 5, 15, 30, and 45 minutes was compared to the PARR at time 0 to determine the percent of test compound remaining at each time point. Half-lives were calculated using Excel software, fitting to a single-phase exponential decay equation.

[3] = Human plasma stability (Protocols 1 and 2); assay type: in vitro ADME; conditions: human
Description: Example B6: Human Plasma Stability
Studies were carried out in human plasma. All plasma was obtained from Bioreclamation and collected on sodium heparin. Plasma was adjusted to pH 7.4. A DMSO stock was first prepared for the test compound. An aliquot of the DMSO solution was dosed into 1 mL of plasma, which had been pre-warmed to 37° C., at a final test compound concentration of 1 μM. The vials were kept in a benchtop Thermomixer® for the duration of the experiment. Aliquots (100 μL) were taken at each time point (0, 15, 30, 60, and 120 minutes) and added to 96-well plates which had been pre-filled with 300 μL of acetonitrile. Samples were stored at 4° C. until the end of the experiment. After the final time point was sampled, the plate was mixed and then centrifuged at 3,000 rpm for 10 minutes. Aliquots of the supernatant were removed, diluted 1:1 into distilled water, and analyzed by LC-MS/MS. The peak area response ratio to internal standard (PARR) of the compound at 15, 30, 60 and 120 minutes was compared to the PARR at time 0 to determine the percent of test compound remaining at each time point. Half-lives were calculated using GraphPad software, fitting to a single-phase exponential decay equation.
Studies were carried out in plasma. Plasma was prepared under approval of IRB and IACUC on sodium heparin. The pH of plasma was monitored and used within the range of pH 7.4 to pH 8.0. DMSO stocks were prepared for the test compounds. Aliquots of the DMSO solutions were diluted to 0.05 mM by 0.05 mM Sodium phosphate buffer with 0.5% BSA. Then 10 μL of 0.05 mM solutions were dosed into 90 μL of plasma in duplicates (n=2), which had been pre-warmed to 37° C., at a final test compound concentration of 5 μM. The plates were kept in a 37° C. water bath for the duration of the experiment. At each time point (0, 5, 15, 30, 45, 60, and 120 minutes), 400 μL of acetonitrile was added into corresponding wells. After the final time point was sampled, the plates were shaken at the vibrator (IKA, MTS 2/4) for 10 min (600 rpm/min) and then centrifuged at 5594 g for 15 min (Thermo Multifuge×3R). Aliquots of the supernatant were removed, diluted 1:1 into distilled water, and analyzed by LC-MS/MS. The peak area response ratio to internal standard (PARR) of the compounds at 5, 15, 30, 45, 60, and 120 minutes was compared to the PARR at time 0 to determine the percent of test compound remaining at each time point. Half-lives were calculated using Excel software, fitting to a single-phase exponential decay equation.

Human α7 NAChR = target: T1, Human α7 NAChR (Homo sapiens, UniProt P36544); test: Electrophysiology screen at 1 μM in Xenopus laevis oocytes; assay type: cell-based; conditions: test compound 1 μM; Imax = maximal current produced by 3 mM ACh; holding voltage −70 mV
T1 construct: TriLink (mRNA); Ecocyte Bioscience (oocytes); host or cells: Xenopus laevis oocytes injected with mRNA
T1 sequence (P36544 23-502): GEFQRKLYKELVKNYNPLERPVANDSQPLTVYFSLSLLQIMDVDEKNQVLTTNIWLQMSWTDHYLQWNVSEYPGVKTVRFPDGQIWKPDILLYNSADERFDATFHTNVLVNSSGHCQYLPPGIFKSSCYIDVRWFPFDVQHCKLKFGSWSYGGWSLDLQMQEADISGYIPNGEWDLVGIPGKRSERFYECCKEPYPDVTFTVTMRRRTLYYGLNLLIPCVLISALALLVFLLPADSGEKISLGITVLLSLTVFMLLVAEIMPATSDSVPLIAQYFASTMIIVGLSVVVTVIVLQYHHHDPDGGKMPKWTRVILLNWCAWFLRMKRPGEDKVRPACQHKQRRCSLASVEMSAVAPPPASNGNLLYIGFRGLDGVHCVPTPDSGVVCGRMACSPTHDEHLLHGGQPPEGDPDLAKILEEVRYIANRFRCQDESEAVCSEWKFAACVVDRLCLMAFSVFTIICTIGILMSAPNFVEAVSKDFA
Description: Example B2: Electrophysiology Screen at 1 μM in Xenopus Laevis Oocytes
Human α7 NAChR mRNA Preparation:
Human α7 NAChR plasmid was prepared by GeneWiz from accession NM_000746.5. Human α7 NAChR mRNA was prepared by TriLink at a concentration near 1 μg/μL. The human α7 NAChR mRNA was diluted in sterile water to a working concentration near 10 ng/μL.
Xenopus laevis Oocyte Injection and Maintenance:
Oocytes were obtained from Xenopus laevis frogs and treated with collagenase by Ecocyte Bioscience. Oocytes were injected with the working concentration of α7 NAChR mRNA at a volume of 50 nL for a total of approximately 0.5 ng of α7 NAChR mRNA. Oocytes were maintained in Barth's solution at a temperature of 16° C. The Barth's solution was replaced daily.
Electrophysiology Measurement:
Two-electrode voltage clamp recordings were made 3-14 days following mRNA injections at a holding voltage of −70 mV. […]
In all oocyte recordings, drug and wash solutions were applied using a custom-designed microcapillary “linear array” which allows rapid application of agonists. Currents were recorded on a PC-based computer (PClamp, Molecular Devices, Sunnyvale, Calif.). […]
Stocks of test compounds were prepared in DMSO. […] The test solution was perfused onto the oocyte until a peak current was recorded. […]

[4] = Protocol 1, human liver microsomes, NADPH, 37° C.
[5] = Protocol 2, plasma pH 7.4 to 8.0, 5 μM, 37° C., read-out: T1/2

rat brain nicotinic receptor (α7 NAChR, α-Bungarotoxin binding site), sequence (Q05941 23-502): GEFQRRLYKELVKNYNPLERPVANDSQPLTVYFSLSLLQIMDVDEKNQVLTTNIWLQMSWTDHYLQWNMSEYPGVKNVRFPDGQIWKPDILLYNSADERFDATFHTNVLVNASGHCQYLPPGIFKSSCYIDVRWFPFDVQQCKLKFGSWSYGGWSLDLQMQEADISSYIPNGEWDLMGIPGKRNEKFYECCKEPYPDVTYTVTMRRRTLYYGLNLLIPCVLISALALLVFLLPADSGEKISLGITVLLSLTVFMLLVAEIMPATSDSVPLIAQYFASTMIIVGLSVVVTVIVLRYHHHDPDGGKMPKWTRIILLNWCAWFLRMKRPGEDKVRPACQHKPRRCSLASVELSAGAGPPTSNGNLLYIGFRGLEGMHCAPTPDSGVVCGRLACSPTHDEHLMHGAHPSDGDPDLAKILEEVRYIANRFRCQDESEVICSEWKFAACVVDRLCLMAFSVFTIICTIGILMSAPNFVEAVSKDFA

| Structure (SMILES) | HLM [2, 4] | half-life at 5 μM [3, 5] | HLM ([2]; human, microsomes) | half-life at 5 μM ([3]; plasma, pH 7.4) | other results |
| --- | --- | --- | --- | --- | --- |
| COc1ccc2c(C(=O)OCC34CCN(CC3)CC4)c[nH]c2c1 [Compound 10, quinuclidin-4-ylmethyl 6-methoxy-1H-indole-3-carboxylate] |  |  |  |  | IC50 [1]: 321 nM; Ki [1]: 279 nM |
| Cl.O=C(OCC12CCN(CC1)CC2)c1c[nH]c2cc(O)c(F)cc12 [Compound 59, Quinuclidin-4-ylmethyl 5-fluoro-6-hydroxy-1H-indole-3-carboxylate hydrochloride] | 0 mL/min/kg | 2.27 h |  |  |  |
| Cc1cc2[nH]cc(C(=O)OCC34CCN(CC3)CC4)c2cc1Cl.Cl [Compound 66, quinuclidin-4-ylmethyl 5-chloro-6-methyl-1H-indole-3-carboxylate hydrochloride] | 0 mL/min/kg | 5.26 h |  |  |  |
| COc1cc2c(C(=O)OCC34CCN(CC3)CC4)c[nH]c2cc1Cl [Compound 69, quinuclidin-4-ylmethyl 6-chloro 5-methoxy-1H-indole-3-carboxylate, hydrochloride] |  |  | 8.8 mL/min/kg | 6.93 h |  |
| Cc1ccc2[nH]cc(C(=O)OCC34CCN(CC3)CC4)c2c1C [Compound 70, quinuclidin-4-ylmethyl 4,5-dimethyl-1H-indole-3-carboxylate] |  |  | 0 mL/min/kg | 4.16 h |  |
| Cc1cc2c(C(=O)OCC34CCN(CC3)CC4)c[nH]c2cc1Cl [Compound 78, quinuclidin-4-ylmethyl 6-chloro-5-methyl-1H-indole-3-carboxylate] |  |  | 0 mL/min/kg | 4.77 h |  |
| COc1cc2c(C(=O)OCC34CCN(CC3)CC4)c[nH]c2cc1C.Cl [Compound 79, quinuclidin-4-ylmethyl 5-methoxy-6-methyl-1H-indole-3-carboxylate hydrochloride] |  | 2.71 h |  |  | IC50 [1]: 159 nM; Ki [1]: 137 nM; I/Imax (Human α7 NAChR): 0.259 |
| Cl.O=C(OCC12CCN(CC1)CC2)c1c[nH]c2cccc(C(F)(F)F)c12 [Compound 80, Quinuclidin-4-ylmethyl 4-(trifluoromethyl)-1H-indole-3-carboxylate hydrochloride] |  | 10.9 h |  |  | I/Imax (Human α7 NAChR): 0.032 |
| Cc1cc(O)cc2[nH]cc(C(=O)OCC34CCN(CC3)CC4)c12 [Compound 83, quinuclidin-4-ylmethyl 6-hydroxy-4-methyl-1H-indole-3-carboxylate] |  |  | 2.7 mL/min/kg | 6.48 h |  |
| COc1cc2[nH]cc(C(=O)OCC34CCN(CC3)CC4)c2cc1OC [Compound 87, quinuclidin-4-ylmethyl 5,6-dimethoxy-1H-indole-3-carboxylate] | 0.5 mL/min/kg | 2.41 h |  |  |  |
